Test results taken from patent US20240197698A1, “TREATMENT OF ACUTE ANXIETY WITH AN ALPHA-7 NICOTINIC ACETYLCHOLINE RECEPTOR MODULATOR” (Vanda Pharmaceuticals Inc., priority 2022, published 2024).

How the values were obtained:
[1] = tested on: subjects with substantial public speaking anxiety; type: in vivo, human
[2] = Plasma concentration of VQW-765 after the TSST by LC-MS/MS; conditions: single oral 10 mg; for Mean plasma concentration: female subjects
[3] = tested on: subjects with substantial public speaking anxiety; assay: Trier Social Stress Test (TSST) public speaking challenge, randomized double-blind placebo-controlled study: SUDS, CGI-C, PGI-C; type: in vivo, human; design: key to SUDS Mean: SUDS 0–100; 0 = no distress/totally relaxed, 100 = highest anxiety ever felt; conditions: for PGI-C Mean / CGI-C Mean: Post-TSST
Experimental: A multicenter, randomized, double-blind, placebo-controlled study evaluates the efficacy and safety of VQW-765 in subjects with substantial public speaking anxiety. […] The study design is illustrated in FIG. 1 and Table 2 (below). Visit 1 includes screening for eligibility. At visit 2, subjects are asked for a baseline SUDS rating and then randomized to one of two arms in a 1:1 ratio. […] VQW-765 is provided in the form of capsules that are white, opaque, hard gelatin, size 3, containing 10 mg VQW-765 and lactose monohydrate, microcrystalline cellulose, methocel, croscarmellose sodium, colloidal silicon dioxide, and magnesium stearate. Placebo capsules are provided in size and appearance identical to those containing VQW-765. Two hours later, subjects are instructed to prepare for a 5-minute speech for a mock job interview (resting phase). After 3 minutes of preparation (anticipation phase), the subject delivered the speech in front of an interview panel with two clinical staff (performance phase). SUDS rating was collected at each minute from the resting to performance phase. Eligible subjects are trained to use SUDS, a self-reported rating scale from 0 to 100, used to measure the intensity of anxiety during the TSST. A SUDS rating of “0” equals “no distress/totally relaxed” and 100 equals “highest anxiety/distress that you have ever felt.” In addition, the Liebowitz Social Anxiety Score (LSAS) is administered, and blood samples are collected for pharmacogenetic analysis. LSAS is a clinician-administered rating scale used to assess how social anxiety plays a role in daily life across a variety of situations. The LSAS is used to study outcomes in clinical trials, and includes 24 items to assess both social anxiety in situations and avoidance of those situations. Each item is rated as 0, none; 1, mild; 2, moderate; or 3, severe. The maximal score is 144. After a waiting period of about two (2) hours from administration of study medication, subjects receive a modified Trier Social Stress Test (TSST) involving a public speaking challenge. The subject is instructed to prepare for a 5-minute speech for a job interview, and is asked for a SUDS rating (resting phase). Then the subject has 3 minutes to mentally prepare. A SUDS rating is collected at each minute interval (anticipation phase). Next, the subject gives a 5-minute speech to an audience of two clinical staff members dressed in white coats and previously unknown to the subject. A SUDS rating is collected just before the speech and then at each minute during the speech (performance phase). The speech is video recorded, and the video camera is observed by the subject. […] Physiological biomarkers associated with anxiety or acute stress response, including heart rate, blood pressure, body temperature, and sweating are monitored continuously by medical devices, including an ePatch Extended Holter Device throughout the Public Speaking challenge.

For Cc1ccc(-c2ccc(O[C@H]3CN4CCC3CC4)cn2)cc1 [VQW-765, (R)-3-(6-p-tolyl-pyridin-3-yloxy)-1-aza-bicyclo[2.2.2]octane], which “pattern of HRV change” value ([1]; in vivo) is on record?
The value was “significant decline”.

What about the “pattern of HRV increase” value ([1]; performance and recovery phases, FIGS. 6C, 6D) of the same molecule?
The value was “steady”.

And the Mean plasma concentration ([2]; exposure group PC-1 (n = 7))?
Its Mean plasma concentration is 0.25 nM.

What about the Mean plasma concentration ([2]; exposure group PC-2 (n = 7)) of the same molecule?
The Mean plasma concentration was 1.18 nM.

And the Mean plasma concentration ([2]; exposure group PC-3 (n = 8))?
The Mean plasma concentration was 1.58 nM.

What about the Mean plasma concentration ([2]; exposure group PC-4 (n = 8)) of the same molecule?
The Mean plasma concentration was 2.06 nM.

And the Mean plasma concentration ([2]; exposure group PC-5 (n = 8))?
Its Mean plasma concentration is 2.9 nM.

And the Mean plasma concentration ([2]; exposure group PC-6 (n = 8))?
Its Mean plasma concentration is 3.82 nM.

And the Mean plasma concentration ([2]; exposure group PC-7 (n = 8))?
The Mean plasma concentration was 5.1 nM.

What about the Mean plasma concentration ([2]; exposure group PC-8 (n = 8)) of the same molecule?
Its Mean plasma concentration is 7.04 nM.

What about the Mean plasma concentration ([2]; exposure group PC-9 (n = 8)) of the same molecule?
Its Mean plasma concentration is 9.79 nM.

And the Mean plasma concentration ([2]; exposure group PC-10 (n = 7))?
The Mean plasma concentration was 13.39 nM.

And the “plasma concentrations in the middle 50%, second and third quartiles” value [2]?
The value was 1.57 to 6.32 nM.

What about the “SUDS Mean” value ([3]; Female (n = 82), Anticipation phase, P-value 0.0446 vs placebo) of the same molecule?
Its value is 54.80.

What about the “SUDS Mean” value ([3]; Female (n = 82), Performance phase, P-value 0.0342 vs placebo) of the same molecule?
The value was 59.55.

And the “SUDS Mean” value ([3]; Female (n = 82), Pre-dose phase (baseline), P-value 0.2239 vs placebo)?
Its value is 34.27.

And the “SUDS Mean” value ([3]; Female (n = 82), Resting phase, P-value 0.0576 vs placebo)?
Its value is 49.15.

And the “SUDS Mean” value ([3]; Female-50% quartile of exposure (n = 38), Anticipation phase, P-value 0.0384 vs placebo)?
Its value is 53.07.

And the “SUDS Mean” value ([3]; Female-50% quartile of exposure (n = 38), Performance phase, P-value 0.0046 vs placebo)?
Its value is 54.37.

What about the “SUDS Mean” value ([3]; Female-50% quartile of exposure (n = 38), Pre-dose phase (baseline), P-value 0.4530 vs placebo) of the same molecule?
Its value is 36.58.

And the “SUDS Mean” value ([3]; Female-50% quartile of exposure (n = 38), Resting phase, P-value 0.0577 vs placebo)?
The value was 47.63.

What about the “response on SUDS compared to placebo” value ([3]; Females, performance phase, p=0.034) of the same molecule?
The value was “larger magnitude and significant response”.

And the “SUDS Mean” value ([3]; ITT (n = 116), Anticipation phase, single oral 10 mg, P-value 0.0890 vs placebo)?
Its value is 52.96.

And the “SUDS Mean” value ([3]; ITT (n = 116), Performance phase, single oral 10 mg, P-value 0.1164 vs placebo)?
Its value is 58.60.

And the “PGI-C Mean” value ([3]; ITT (n = 116), scale 1 to 7, P-value 0.3993 vs placebo)?
The value was 3.4.

And the “CGI-C Mean” value ([3]; ITT (n = 116), scale 1 to 7, P-value 0.4038 vs placebo)?
Its value is 3.6.

What about the “SUDS Mean” value ([3]; ITT (n = 116), Pre-dose phase (baseline), single oral 10 mg, P-value 0.2215 vs placebo) of the same molecule?
Its value is 34.66.

And the “SUDS Mean” value ([3]; ITT (n = 116), Resting phase, single oral 10 mg, P-value 0.1423 vs placebo)?
The value was 47.76.

What about the “SUDS Mean” value ([3]; ITT-50% quartile of exposure (n = 56), Anticipation phase, P-value 0.0472 vs placebo) of the same molecule?
The value was 50.89.

And the “SUDS Mean” value ([3]; ITT-50% quartile of exposure (n = 56), Performance phase, P-value 0.0332 vs placebo)?
Its value is 55.36.

What about the “SUDS Mean” value ([3]; ITT-50% quartile of exposure (n = 56), Pre-dose phase (baseline), P-value 0.3845 vs placebo) of the same molecule?
Its value is 35.89.

And the “SUDS Mean” value ([3]; ITT-50% quartile of exposure (n = 56), Resting phase, P-value 0.1059 vs placebo)?
The value was 46.25.

And the “SUDS Mean” value ([3]; ITT-LSAS ≥ 60 (n = 97), Anticipation phase, P-value 0.1535 vs placebo)?
The value was 54.05.

And the “SUDS Mean” value ([3]; ITT-LSAS ≥ 60 (n = 97), Performance phase, P-value 0.1664 vs placebo)?
The value was 59.67.

What about the “SUDS Mean” value ([3]; ITT-LSAS ≥ 60 (n = 97), Pre-dose phase (baseline), P-value 0.3225 vs placebo) of the same molecule?
The value was 37.01.

And the “SUDS Mean” value ([3]; ITT-LSAS ≥ 60 (n = 97), Resting phase, P-value 0.1509 vs placebo)?
The value was 49.28.

And the “PGI-C, difference to placebo” value ([3]; ITT, p=0.399)?
Its value is “No significant differences”.

And the “CGI-C, difference to placebo” value ([3]; ITT, p=0.404)?
Its value is “No significant differences”.

And the “intensity of anxiety as measured by the SUDS compared to placebo” value ([3]; ITT, performance phase, p=0.116)?
Its value is “trend of improvement”.

What about the “performance anxiety compared to placebo” value ([3]; LSAS total score≥60 with efficacious exposures, p=0.014) of the same molecule?
The value was “significantly reduced”.

And the “performance anxiety compared to placebo” value ([3]; females, LSAS total score≥60 with efficacious exposures, p=0.004)?
Its value is “significantly reduced”.

What about the “SUDS compared to placebo” value ([3]; males with efficacious exposures, FIG. 5C) of the same molecule?
Its value is “do not show improvement”.

What about the “SUDS rating compared to placebo” value ([3]; males, FIG. 2C) of the same molecule?
Its value is “do not show improvement”.

And the “SUDS rating compared to placebo” value ([3]; middle 50% of exposure, second and third quartiles, VQW-M (1.5-8 pmol/ml), p=0.033)?
Its value is “significant improvement”.

And the “SUDS Mean” value ([3]; post-hoc, Female-Efficacious exposure (n = 46), Anticipation phase, P-value 0.0116 vs placebo)?
The value was 51.38.

And the “SUDS Mean” value ([3]; post-hoc, Female-Efficacious exposure (n = 46), Performance phase, P-value 0.0029 vs placebo)?
Its value is 54.00.

And the “CGI-C Mean” value ([3]; post-hoc, Female-Efficacious exposure (n = 46), P-value 0.2417 vs placebo)?
Its value is 3.4.

What about the “PGI-C Mean” value ([3]; post-hoc, Female-Efficacious exposure (n = 46), P-value 0.4655 vs placebo) of the same molecule?
The value was 3.4.

What about the “SUDS Mean” value ([3]; post-hoc, Female-Efficacious exposure (n = 46), Pre-dose phase (baseline), P-value 0.4267 vs placebo) of the same molecule?
Its value is 36.30.

What about the “SUDS Mean” value ([3]; post-hoc, Female-Efficacious exposure (n = 46), Resting phase, P-value 0.0282 vs placebo) of the same molecule?
Its value is 46.52.

What about the “SUDS Mean” value ([3]; post-hoc, ITT-Efficacious exposure (n = 69), Anticipation phase, P-value 0.0165 vs placebo) of the same molecule?
The value was 49.86.

What about the “SUDS Mean” value ([3]; post-hoc, ITT-Efficacious exposure (n = 69), Performance phase, P-value 0.0202 vs placebo) of the same molecule?
The value was 54.96.

And the “CGI-C Mean” value ([3]; post-hoc, ITT-Efficacious exposure (n = 69), P-value 0.4343 vs placebo)?
Its value is 3.5.

And the “PGI-C Mean” value ([3]; post-hoc, ITT-Efficacious exposure (n = 69), P-value 0.5525 vs placebo)?
The value was 3.4.

What about the “SUDS Mean” value ([3]; post-hoc, ITT-Efficacious exposure (n = 69), Pre-dose phase (baseline), P-value 0.3368 vs placebo) of the same molecule?
Its value is 35.51.

What about the “SUDS Mean” value ([3]; post-hoc, ITT-Efficacious exposure (n = 69), Resting phase, P-value 0.0471 vs placebo) of the same molecule?
The value was 45.07.

And the “anxiety (SUDS) during the TSST compared to placebo” value ([3]; post-hoc, subjects not wearing a face mask (n=5 on VQW-765, n=6 on placebo), FIG. 9)?
The value was “significantly less anxious”.

And the “performance anxiety compared to placebo” value ([3]; post-hoc, subjects with efficacious exposures, p=0.020, FIG. 5A)?
Its value is “significantly alleviated”.

And the “CGI-C, difference to placebo” value ([3]; post-hoc, subjects with efficacious exposures, p=0.325)?
Its value is “does not reveal any significant difference”.

And the “PGI-C, difference to placebo” value ([3]; post-hoc, subjects with efficacious exposures, p=0.376)?
Its value is “does not reveal any significant difference”.
